According to PubChem BioAssay (NCI):
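Tested at 5 concentrations; 48 h exposure; 96-well plates; endpoints linearly interpolated, else capped at highest concentration. Definition used: TGI = concentration required for complete inhibition of growth.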

Assays:
Experiment in all cases: growth of human tumour cells (NCI), 48 h
U251 CNS = system: U251 CNS
HOP-62 NSCLC = system: HOP-62 NSCLC
CAKI-1 renal = system: CAKI-1 renal
MOLT-4 leukemia = system: MOLT-4 leukemia
K-562 leukemia = system: K-562 leukemia
RXF 393 renal = system: RXF 393 renal
T-47D breast = system: T-47D breast
MDA-MB-435 = system: MDA-MB-435
SW-620 colon = system: SW-620 colon
NCI-H226 lung = system: NCI-H226 lung
HCC-2998 colon = system: HCC-2998 colon
SF-268 CNS = system: SF-268 CNS
M14 melanoma = system: M14 melanoma
HT29 colon = system: HT29 colon
NCI-H460 lung = system: NCI-H460 lung
SF-295 CNS = system: SF-295 CNS
DU-145 prostate = system: DU-145 prostate
CCRF-CEM leukemia = system: CCRF-CEM leukemia
UACC-257 melanoma = system: UACC-257 melanoma
MDA-N = system: MDA-N
MDA-MB-231 breast = system: MDA-MB-231 breast
RPMI-8226 leukemia = system: RPMI-8226 leukemia
COLO 205 colon = system: COLO 205 colon
SR leukemia = system: SR leukemia
BT-549 breast = system: BT-549 breast
NCI-H23 lung = system: NCI-H23 lung
MCF7 breast = system: MCF7 breast
ACHN renal = system: ACHN renal
NCI/ADR-RES ovarian = system: NCI/ADR-RES ovarian
UACC-62 melanoma = system: UACC-62 melanoma
OVCAR-3 ovarian = system: OVCAR-3 ovarian
SNB-19 CNS = system: SNB-19 CNS
OVCAR-5 ovarian = system: OVCAR-5 ovarian
NCI-H522 lung = system: NCI-H522 lung
MALME-3M melanoma = system: MALME-3M melanoma
EKVX NSCLC = system: EKVX NSCLC
SK-MEL-5 melanoma = system: SK-MEL-5 melanoma
IGROV1 ovarian = system: IGROV1 ovarian
SN12C renal = system: SN12C renal
A549 NSCLC = system: A549 NSCLC
OVCAR-8 ovarian = system: OVCAR-8 ovarian
LOX IMVI melanoma = system: LOX IMVI melanoma
HOP-92 NSCLC = system: HOP-92 NSCLC
SK-OV-3 ovarian = system: SK-OV-3 ovarian
HL-60(TB) leukemia = system: HL-60(TB) leukemia
HS 578T breast = system: HS 578T breast
OVCAR-4 ovarian = system: OVCAR-4 ovarian
SK-MEL-28 melanoma = system: SK-MEL-28 melanoma
UO-31 renal = system: UO-31 renal
SF-539 CNS = system: SF-539 CNS
HCT-15 colon = system: HCT-15 colon
HCT-116 colon = system: HCT-116 colon
TK-10 renal = system: TK-10 renal
PC-3 prostate = system: PC-3 prostate
SNB-75 CNS = system: SNB-75 CNS
786-0 renal = system: 786-0 renal
KM12 colon = system: KM12 colon
SK-MEL-2 melanoma = system: SK-MEL-2 melanoma
A498 renal = system: A498 renal

Nc1nc2ccc(NCc3ccc(C(=O)NC(CCC(=O)O)C(=O)O)cc3)cc2c(=O)[nH]1 (stereo not given)
TGI (U251 CNS): > 100 µM | TGI (HOP-62 NSCLC): > 100 µM | TGI (CAKI-1 renal): > 100 µM | TGI (MOLT-4 leukemia): > 100 µM | TGI (K-562 leukemia): > 100 µM | TGI (RXF 393 renal): > 100 µM | TGI (T-47D breast): > 100 µM | TGI (MDA-MB-435): > 100 µM | TGI (SW-620 colon): > 100 µM | TGI (NCI-H226 lung): > 100 µM | TGI (HCC-2998 colon): > 100 µM | TGI (SF-268 CNS): > 100 µM | TGI (M14 melanoma): 87.5 µM | TGI (HT29 colon): > 100 µM | TGI (NCI-H460 lung): > 100 µM | TGI (SF-295 CNS): > 100 µM | TGI (DU-145 prostate): > 100 µM | TGI (CCRF-CEM leukemia): > 100 µM | TGI (UACC-257 melanoma): > 100 µM | TGI (MDA-N): > 100 µM | TGI (MDA-MB-231 breast): > 100 µM | TGI (RPMI-8226 leukemia): > 100 µM | TGI (COLO 205 colon): > 100 µM | TGI (SR leukemia): > 100 µM | TGI (BT-549 breast): > 100 µM | TGI (NCI-H23 lung): > 100 µM | TGI (MCF7 breast): > 100 µM | TGI (ACHN renal): 39.9 µM | TGI (NCI/ADR-RES ovarian): > 100 µM | TGI (UACC-62 melanoma): > 100 µM | TGI (OVCAR-3 ovarian): > 100 µM | TGI (SNB-19 CNS): > 100 µM | TGI (OVCAR-5 ovarian): > 100 µM | TGI (NCI-H522 lung): > 100 µM | TGI (MALME-3M melanoma): > 100 µM | TGI (EKVX NSCLC): > 100 µM | TGI (SK-MEL-5 melanoma): > 100 µM | TGI (IGROV1 ovarian): > 100 µM | TGI (SN12C renal): > 100 µM | TGI (A549 NSCLC): > 100 µM | TGI (OVCAR-8 ovarian): > 100 µM | TGI (LOX IMVI melanoma): > 100 µM | TGI (HOP-92 NSCLC): > 100 µM | TGI (SK-OV-3 ovarian): > 100 µM | TGI (HL-60(TB) leukemia): > 100 µM | TGI (HS 578T breast): > 100 µM | TGI (OVCAR-4 ovarian): > 100 µM | TGI (SK-MEL-28 melanoma): > 100 µM | TGI (UO-31 renal): > 100 µM | TGI (SF-539 CNS): > 100 µM | TGI (HCT-15 colon): > 100 µM | TGI (HCT-116 colon): > 100 µM | TGI (TK-10 renal): > 100 µM | TGI (PC-3 prostate): > 100 µM | TGI (SNB-75 CNS): > 100 µM | TGI (786-0 renal): > 100 µM | TGI (KM12 colon): > 100 µM | TGI (SK-MEL-2 melanoma): > 100 µM

COC(=O)C(=O)C(C(=O)C(=O)Nc1ccc([N+](=O)[O-])cc1[N+](=O)[O-])c1nc2ccc(Cl)cc2[nH]c1=O (stereo not given)
TGI (U251 CNS): > 100 µM | TGI (CAKI-1 renal): > 100 µM | TGI (MOLT-4 leukemia): > 100 µM | TGI (K-562 leukemia): > 100 µM | TGI (RXF 393 renal): > 100 µM | TGI (T-47D breast): > 100 µM | TGI (MDA-MB-435): > 100 µM | TGI (SW-620 colon): > 100 µM | TGI (NCI-H226 lung): > 100 µM | TGI (HCC-2998 colon): > 100 µM | TGI (SF-268 CNS): > 100 µM | TGI (M14 melanoma): > 100 µM | TGI (HT29 colon): > 100 µM | TGI (NCI-H460 lung): > 100 µM | TGI (SF-295 CNS): > 100 µM | TGI (DU-145 prostate): > 100 µM | TGI (UACC-257 melanoma): > 100 µM | TGI (MDA-N): > 100 µM | TGI (MDA-MB-231 breast): > 100 µM | TGI (RPMI-8226 leukemia): > 100 µM | TGI (COLO 205 colon): > 100 µM | TGI (SR leukemia): > 100 µM | TGI (BT-549 breast): > 100 µM | TGI (NCI-H23 lung): > 100 µM | TGI (MCF7 breast): > 100 µM | TGI (ACHN renal): > 100 µM | TGI (NCI/ADR-RES ovarian): > 100 µM | TGI (UACC-62 melanoma): > 100 µM | TGI (OVCAR-3 ovarian): > 100 µM | TGI (SNB-19 CNS): > 100 µM | TGI (OVCAR-5 ovarian): > 100 µM | TGI (SK-MEL-5 melanoma): > 100 µM | TGI (SN12C renal): > 100 µM | TGI (A549 NSCLC): > 100 µM | TGI (OVCAR-8 ovarian): > 100 µM | TGI (LOX IMVI melanoma): > 100 µM | TGI (HOP-92 NSCLC): > 100 µM | TGI (SK-OV-3 ovarian): > 100 µM | TGI (HL-60(TB) leukemia): > 100 µM | TGI (HS 578T breast): 90.8 µM | TGI (OVCAR-4 ovarian): > 100 µM | TGI (SK-MEL-28 melanoma): > 100 µM | TGI (UO-31 renal): > 100 µM | TGI (SF-539 CNS): > 100 µM | TGI (A498 renal): > 100 µM | TGI (HCT-15 colon): > 100 µM | TGI (HCT-116 colon): > 100 µM | TGI (PC-3 prostate): > 100 µM | TGI (SNB-75 CNS): 73.1 µM | TGI (786-0 renal): > 100 µM | TGI (KM12 colon): > 100 µM | TGI (SK-MEL-2 melanoma): > 100 µM
